According to PubChem BioAssay (NCI):
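A five-concentration, 48-hour dose response in 96-well plates underlies each endpoint, interpolated linearly between surrounding concentrations. At the GI50, growth is halved. TGI denotes the concentration required for complete inhibition of growth.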

Assays:
Experiment in all cases: inhibition of tumour cell growth, NCI panel, 48 h
OVCAR-5 ovarian = tested on: OVCAR-5 ovarian
SK-MEL-28 melanoma = tested on: SK-MEL-28 melanoma
HCC-2998 colon = tested on: HCC-2998 colon
A549 NSCLC = tested on: A549 NSCLC
SK-OV-3 ovarian = tested on: SK-OV-3 ovarian
K-562 leukemia = tested on: K-562 leukemia
HL-60(TB) leukemia = tested on: HL-60(TB) leukemia
CAKI-1 renal = tested on: CAKI-1 renal
OVCAR-3 ovarian = tested on: OVCAR-3 ovarian
DU-145 prostate = tested on: DU-145 prostate

Compound | TGI (OVCAR-5 ovarian) | TGI (SK-MEL-28 melanoma) | TGI (HCC-2998 colon) | TGI (A549 NSCLC) | TGI (SK-OV-3 ovarian) | TGI (K-562 leukemia) | TGI (HL-60(TB) leukemia) | TGI (CAKI-1 renal) | TGI (OVCAR-3 ovarian) | GI50 (SK-OV-3 ovarian) | GI50 (DU-145 prostate) | TGI (DU-145 prostate) | GI50 (K-562 leukemia) | GI50 (OVCAR-5 ovarian) | GI50 (SK-MEL-28 melanoma) | GI50 (HCC-2998 colon) | GI50 (OVCAR-3 ovarian) | GI50 (CAKI-1 renal) | GI50 (A549 NSCLC) | GI50 (HL-60(TB) leukemia)
COc1ccc2nc3ccccc3c(NCCCCN(CCCl)CCCl)c2c1 | > 23.6 µM | 8.02 µM | 6.06 µM | 6.25 µM |  |  |  |  |  |  |  |  |  |  |  |  |  |  |  | 
CC(=O)CC(=O)Nc1ccccc1C(F)(F)F | > 100 µM | > 100 µM | > 100 µM | > 100 µM | > 100 µM | > 100 µM | > 100 µM | > 100 µM |  |  |  |  |  |  |  |  |  |  |  | 
CN(C)N=Nc1ccc(S(N)(=O)=O)cc1 | > 100 µM | > 100 µM | > 100 µM | > 100 µM | > 100 µM | > 100 µM |  | > 100 µM | > 100 µM |  |  |  |  |  |  |  |  |  |  | 
COc1ccc(C(=O)C(C(=O)C(=O)NCCCNC(=O)C(=O)C(C(=O)c2ccc(OC)cc2)c2ccc(OC)cc2)c2ccc(OC)cc2)cc1 (configuration not stated) | > 100 µM | > 100 µM | > 100 µM | > 100 µM | > 100 µM | > 100 µM | > 100 µM |  | > 100 µM |  |  |  |  |  |  |  |  |  |  | 
O=C(N/C(=C\c1ccc(/C=C(\NC(=O)c2ccccc2)c2nc3c(O)nc(S)nc3[nH]2)cc1)c1nc2c(O)nc(S)nc2[nH]1)c1ccccc1 | > 100 µM | > 100 µM | > 100 µM | > 100 µM | > 100 µM | > 100 µM |  | > 100 µM | > 100 µM |  |  |  |  |  |  |  |  |  |  | 
CCN(CC)C(=S)SS(C)(=O)=O | 42.2 µM |  |  |  | > 100 µM | 47.8 µM | 26.6 µM | 57.1 µM |  |  |  |  |  |  |  |  |  |  |  | 
Clc1ccc(-c2nc(NCc3ccco3)c3ccccc3n2)c(Cl)c1 | > 100 µM | > 100 µM | 46.9 µM | 49.1 µM | > 100 µM | 60.4 µM |  | 31 µM | 29.7 µM | 18.6 µM | 8.38 µM | 29.6 µM | 8.7 µM | 40.1 µM | 24.5 µM | 18.2 µM | 11.6 µM | 8.82 µM | 20.1 µM | 
Cc1cc(N(CCNc2ccnc3cc(Cl)ccc23)Cc2ccc3c(c2)OCO3)nc(N2CCCC2)n1 | 4.95 µM | 3.2 µM | 3.9 µM | 4.96 µM | 8.15 µM | 3.2 µM | 4.06 µM |  | 3.81 µM | 2.63 µM |  |  | 0.7 µM | 1.87 µM | 1.68 µM | 1.89 µM | 1.74 µM |  | 1.67 µM | 1.95 µM
O=C1C(Cl)=C(NCCCN(CCCNC2=C(Cl)C(=O)c3ccccc3C2=O)C2=C(Cl)C(=O)c3ccccc3C2=O)C(=O)c2ccccc21 | 17.2 µM | 4.53 µM | 6.37 µM | > 100 µM | 37.9 µM |  |  |  | 5.71 µM | 18.4 µM | 1.68 µM | 3.06 µM |  | 4.85 µM | 2.15 µM | 2.45 µM | 1.71 µM |  | 3.43 µM | 
CCC(c1ccccc1)c1cc(C(C)(C)C)cc(C(C)(C)C)c1O (configuration not stated) | 26.6 µM | 32.5 µM | 29.2 µM | 29.8 µM | 28.1 µM | 34 µM |  | 29.8 µM | 27.2 µM |  |  | 33.2 µM |  |  |  |  |  |  |  | 
CCOC(=O)/C=C1/SC(=Nc2ccc(C#N)cc2)N(Cc2ccco2)C1=O | 16.1 µM | 10.5 µM | 15.8 µM | 26.1 µM | 29.9 µM | 11.4 µM | 5.76 µM |  | 3.52 µM | 14.1 µM | 3.17 µM | 10.5 µM | 3.16 µM | 3.36 µM | 2.92 µM | 3.67 µM | 1.82 µM |  | 10.4 µM | 2.38 µM
CC1=C2C=CC(=O)C[C@@]2(C)CCC1 | > 100 µM | > 100 µM | > 100 µM | > 100 µM | > 100 µM | > 100 µM | > 100 µM | > 100 µM | > 100 µM |  |  |  |  |  |  |  |  |  |  | 
CC1=C(C(=O)Nc2ccc(Cl)c(Cl)c2)C(c2cccc(Cl)c2)NC(=S)N1 (configuration not stated) |  | > 50 µM |  | 48.3 µM | 33 µM | > 50 µM | 45.5 µM | > 50 µM | 37.5 µM | 15.2 µM | 14.4 µM | 44 µM | 19.7 µM |  | 15.6 µM |  | 10.5 µM | 14.2 µM | 11.2 µM | 16.5 µM
COc1ccc2c(c1)[n+]([O-])c(-c1ccccc1Cl)c(N)[n+]2[O-] | > 100 µM | > 100 µM |  | > 100 µM | > 100 µM | > 100 µM | > 100 µM | > 100 µM | > 100 µM |  |  |  |  |  |  |  |  |  |  | 
CCN(CC)c1ccc(C2N3CCCCC3[C@@H]3c4[nH]c5ccccc5c4CCN23)cc1 (some centres not stated) | > 100 µM | 58 µM |  | > 100 µM | > 100 µM | 61.3 µM | 30.8 µM | > 100 µM | 71.4 µM |  |  |  |  |  |  |  |  |  |  | 
COc1cc(O)c(C(=O)/C=C/c2ccc(OC)c(OCc3ccccc3)c2)c(OC)c1 | > 100 µM |  | > 100 µM | > 100 µM | > 100 µM | > 100 µM | > 100 µM | > 100 µM | > 100 µM |  |  |  |  |  |  |  |  |  |  | 
CC(=O)[CH-]C(=O)c1ccccc1.CC(=O)[CH-]C(=O)c1ccccc1.CC(=O)[CH-]C(=O)c1ccccc1.[Ga+3] | 66.8 µM | 30.9 µM | 29.9 µM | > 100 µM | 38.2 µM | 51.5 µM | 36.1 µM | 80 µM | 48.9 µM | 20.1 µM |  |  | 16.9 µM | 26.5 µM | 16.5 µM | 13.9 µM | 20.4 µM | 30.8 µM | 34.4 µM | 11.8 µM
N=C(CC(=O)Nc1ccccn1)c1ccccc1 | > 100 µM | > 100 µM |  | > 100 µM | > 100 µM | > 100 µM | > 100 µM | > 100 µM | > 100 µM |  |  | > 100 µM |  |  |  |  |  |  |  | 
CCCCCCCCCCCCCS(=O)(=O)NCC(N)=O | > 100 µM | > 100 µM | > 100 µM | > 100 µM | > 100 µM |  | > 100 µM |  | > 100 µM |  |  |  |  |  |  |  |  |  |  | 
CCOC(=O)C1C(=O)CC(=O)C2CCCCC21 (configuration not stated) | > 100 µM | > 100 µM |  | > 100 µM | > 100 µM | > 100 µM | > 100 µM | > 100 µM | > 100 µM |  |  |  |  |  |  |  |  |  |  | 
